Assay results: patent publication US10993923B2, “Method for ameliorating fibrosis using 1-[4-chloro-3-(trifluoromethyl)phenyl]-3-[3-(4-cyanophenoxy)phenyl]urea” (priority 2016, dated 2021)

Tests used:
[1] = test system: LX2 cells; assay: Apoptosis (Annexin V / propidium iodide flow cytometry), LX2 cells; assay type: cell-based, human
Method: Rat immortal hepatic stellate cell line HSC-T6 and LX2 human hepatic stellate cell line were provided by Professor Scott Friedman of Mount Sinai Hospital in New York, USA. The primary mouse HSCs were obtained via the way: after intubating the hepatic portal vein of the mouse, the cells were perfused with […] and ethylene glycol bis-aminoethyl ether tetraacetic acid (EGTA) buffer in situ, and then collagenase was injected to digest the liver tissue, and then the primary mouse HSCs were isolated by Histodnz gradient. HSC-T6 cells were cultured in Waymouth medium; LX2 cells and primary mouse HSCs were cultured in Dulbecco's Modified Eagle Medium (DMEM) containing 10% fetal bovine serum (FBS), 100 μg/mL penicillin, 100 μg/mL streptomycin, and 2 mM L-glutamine HSC-T6 cells, LX2 cells and primary mouse HSCs were cultured in a humidified incubator containing 5% carbon dioxide at 37° C. After adding the FBS, the resting HSC is started. […] The experiment was carried out following the manufacturer's instructions, and each group was triple repetition. […] The proportion of apoptotic cells was mixed the early (Annexin V+/PI-) and the late (Annexin V+/PI+) apoptotic cells measured by BD FACS Verse flow cytometry (BD, USA). Plasmids encoding the human wild-type SHP-1 and SHP-1 mutant, in which the N-SH2 domain was […] was changed into an […]) were cloned into the pCMV6-entry vector with myc-tag. These mutants were confirmed through DNA sequencing. […] (Chicago, Ill., USA).

[2] = test system: HSC-T6 cells; assay: Cell viability (MTS), HSC-T6 cells; assay type: cell-based, rat; conditions: 24 hours; effect more significant than sorafenib; FIG. 14A
Method: (§1) Rat immortal hepatic stellate cell line HSC-T6 and LX2 human hepatic stellate cell line were provided by Professor Scott Friedman of Mount Sinai Hospital in New York, USA. The primary mouse HSCs were obtained via the way: after intubating the hepatic portal vein of the mouse, the cells were perfused with Leffert's and ethylene glycol bis-aminoethyl ether tetraacetic acid (EGTA) buffer in situ, and then collagenase was injected to digest the liver tissue, and then the primary mouse HSCs were isolated by Histodnz gradient. […]
(§2) HSC-T6 cells, LX2 cells or primary mouse HSCs cells were seeded in 96-well plates (5,000 cells/well) for 24 hours, and the cells were treated with various concentrations of 1-[4-chloro-3-(trifluoromethyl)phenyl]-3-[3-(4-cyanophenoxy)phenyl]urea or Sorafenib for 24 or 48 hours. The effect of each reagent on the cell viability and the cell were evaluated by CellTiter 96 AQueous one solution of 3-(4,5-dimethylthiazol-2-yl)-5-(3-carboxymethoxyphenyl)-2-(4-sulfophenyl)-2H-tetra zolium, an inner, MTS (Promega, USA). […] The proportion of apoptotic cells was mixed the early (Annexin V+/PI−) and the late (Annexin V+/PI+) apoptotic cells measured by BD FACS Verse flow cytometry (BD, USA).

[3] = test system: LX2 cells; assay: Cell viability (MTS), LX2 cells; assay type: cell-based, human; conditions: 24 hours; effect more significant than sorafenib; FIG. 14A
Method: as §1, §2

[4] = target: T1, SHP-1 (Homo sapiens, UniProt P29350); assay: SHP-1 phosphatase activity, LX2 cells; assay type: cell-based
T1 construct: LX2 cell protein extract were reacted with anti-SHP-1 antibody in immunoprecipitation buffer overnight; endogenous in cells; host or cells: LX2 cells
Method: After drug treatment, mouse fibroblasts (NIH3T3 cell line), human lung epithelial cells (A549 cell line) or LX2 cell protein extract were reacted with anti-SHP-1 antibody in immunoprecipitation buffer overnight. Protein A/G Sepharose Fast Flow Beads (GE) were added to each sample, followed by a rotation reaction at 4° C. for 3 hours. The 96EnzChek® tyrosine phosphatase assay kit (R-22067) was used for SHP-1 activity assay (Invitrogen, USA).
Plasmids encoding the human wild-type SHP-1 and SHP-1 mutant, in which the N—SH2 domain was truncated (dN1) or one aspartic acid at site 61 was changed into an alanine residue (D61A) were cloned into the pCMV6-entry vector with myc-tag. These mutants were confirmed through DNA sequencing. Smart-pool siRNA, including the control (D-001810-10), and SHP-1 (PTPN6, L-009778-00-0005) were obtained from Dharmacon Inc. (Chicago, Ill., USA). For transient expression, SHP-1 plasmids or siRNA (final concentration, 100 nM) with the Lipofectamine 2000 transfection reagent were pretransfected into the LX2 cells for 24 h, following the manufacturer's instructions.

[5] = test system: mouse fibroblasts (NIH3T3 cell line); assay: Cell viability assay (WST-1), NIH3T3 fibroblasts; assay type: cell-based; conditions: FIG. 7A
Method: Murine NIH3T3 fibroblasts and human lung epithelial cells (A549 cells) were purchased from the Bioresource Collection and Research Center (Hsinchu, Taiwan). Cells were cultured in Dulbecco's modified eagle medium (DMEM) containing 10% fetal bovine serum (FBS), 100 μg/mL penicillin, 100 μg/mL streptomycin. Cells were cultured at 37° C. in a humidified atmosphere of 5% CO2 and passaged every 4 to 5 days at 1:4 ratios.
Murine NIH3T3 fibroblasts were seeded into 96-well plates (1×10^3 cells/well). To measure the cell viability and the cell proliferation, 10% WST-1 (cell proliferation reagent WST-1, Roche) was added to each well and reacted for 3 hours. The reaction was catalyzed by mitochondrial reductase in active cells and the optical density (OD) was calculated by measuring the absorbance at 450 nm via a Bio-Rad ELISA analyzer.

T1 sequence (P29350 whole entry): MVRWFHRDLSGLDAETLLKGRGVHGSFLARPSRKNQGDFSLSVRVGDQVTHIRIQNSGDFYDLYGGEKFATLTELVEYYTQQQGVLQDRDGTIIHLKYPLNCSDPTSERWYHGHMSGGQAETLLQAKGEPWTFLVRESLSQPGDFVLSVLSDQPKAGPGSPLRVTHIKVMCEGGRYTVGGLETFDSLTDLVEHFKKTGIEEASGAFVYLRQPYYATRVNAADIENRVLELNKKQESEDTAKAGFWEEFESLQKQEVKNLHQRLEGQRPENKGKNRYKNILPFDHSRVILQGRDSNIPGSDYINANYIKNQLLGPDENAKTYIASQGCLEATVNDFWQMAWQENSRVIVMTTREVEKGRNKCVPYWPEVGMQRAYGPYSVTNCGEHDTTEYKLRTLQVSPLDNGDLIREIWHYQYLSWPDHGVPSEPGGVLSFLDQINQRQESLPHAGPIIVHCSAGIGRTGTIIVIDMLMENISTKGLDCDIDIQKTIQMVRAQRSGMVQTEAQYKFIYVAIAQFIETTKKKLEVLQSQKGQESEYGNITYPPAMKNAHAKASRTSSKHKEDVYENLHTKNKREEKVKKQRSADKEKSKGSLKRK

N#Cc1ccc(Oc2cccc(NC(=O)Nc3ccc(Cl)c(C(F)(F)F)c3)c2)cc1 [1-[4-chloro-3-(trifluoromethyl)phenyl]-3-[3-(4-cyanophenoxy)phenyl]urea]
apoptotic LX2 cells, ectopic expression of the vector control and wild-type SHP-1 ([1]; 5 μM, 24 hours, FIG. 17D, 17E): significantly increased the apoptotic LX2 cells | HSC apoptosis ([1]; LX2, 24 hours, compared with sorafenib, FIG. 14B): significantly increased HSC apoptosis in a dose-dependent manner | cell apoptosis and p-STAT3 downregulation in dN1 and D61A mutants ([1]; LX2, 5 μM, 24 hours, FIG. 17E): insensitive | anti-proliferative activity after SHP-1 knockdown by using siRNA ([1]; LX2, FIG. 16F): significantly counteracted | viability of HSC-T6 cells [2]: dose-dependent effects to reduce the viability | viability of LX2 cells [3]: dose-dependent effects to reduce the viability | SHP-1 activity in the ectopic expression of the vector and wild-type SHP-1 ([4]; FIG. 17C): significantly increased the SHP-1 activity | SHP-1 activity ([4]; LX2, sorafenib 5 μM, compound 2.5 or 5 μM, FIG. 16C): significantly increased the SHP-1 activity at a lower concentration | enhancing SHP-1 activity, compared with sorafenib ([4]; test system not stated at the place, text refers to FIG. 2A): better than the known anti-fibrosis drug sorafenib | survival rate of mouse fibroblasts [5]: reduced the survival rate of mouse fibroblasts (NIH3T3 cell line) in a dose-dependent manner
